How the values were obtained:
[1] = target: T1, recombinant human mGluR4a receptors (Homo sapiens, UniProt Q14833); assay: mGluR4 assay on HEK-expressing human mGluR4: fluorescent cell based Ca2+ mobilization assay (FLIPR); conditions: HEK-293 cells expressing hmGluR4; enhancement of EC25 glutamate response; mean of at least three independent experiments in duplicate; read-out: Ca^2+ Flux (mean EC50)
T1 construct: expressed in transfected cells
Excerpt: mGluR4 Assay on HEK-Expressing Human mGluR4
The compounds of the present invention are positive allosteric modulators of mGluR4 receptor. Their activity was examined on recombinant human mGluR4a receptors by detecting changes in intracellular Ca^2+ concentration, using the fluorescent Ca^2+-sensitive dye Fluo-4-(AM) and a Fluorometric Imaging Plate Reader (FLIPR, Molecular Devices, Sunnyvale, Calif.).
The cDNA encoding the human metabotropic glutamate receptor (hmGluR4), (accession number NM_000841.1, NCBI Nucleotide database browser), was subcloned into an expression vector containing also the hygromycin resistance gene. In parallel, the cDNA encoding a G protein allowing redirection of the activation signal to intracellular calcium flux was subcloned into a different expression vector containing also the puromycin resistance gene. Transfection of both these vectors into HEK293 cells with PolyFect reagent (Qiagen) according to supplier's protocol, and hygromycin and puromycin treatment allowed selection of antibiotic resistant cells which had integrated stably one or more copies of the plasmids. Positive cellular clones expressing hmGluR4 were identified in a functional assay measuring changes in calcium fluxes in response to glutamate or selective known mGluR4 orthosteric agonists and antagonists. HEK-293 cells expressing hmGluR4 were maintained in media containing DMEM, dialyzed Fetal Calf Serum (10%), Glutamax™ (2 mM), Penicillin (100 units/mL), Streptomycin (100 μg/mL), Geneticin (100 μg/mL) and Hygromycin-B (40 μg/mL) and puromycin (1 μg/mL) at 37° C./5% CO2.
Human mGluR4HEK-293 cells were plated out 24 hours prior to FLIPR^384 assay in black-walled, clear-bottomed, poly-L-ornithine-coated 384-well plates at a density of 25,000 cells/well in a glutamine/glutamate free DMEM medium containing foetal bovine serum (10%), penicillin (100 units/mL) and streptomycin (100 μg/mL) at 37° C./5% CO2.
On the day of the assay, the medium was aspirated and the cells were loaded with a 3 μM solution of Fluo-4-AM (LuBioScience, Lucerne, Switzerland) in 0.03% pluronic acid. After 1 hour at 37° C./5% CO2, the non incorporated dye was removed by washing cell plate with the assay buffer and the cells were left in the dark at room temperature for […] before testing. All assays were performed in a pH 7.4 buffered-solution containing 20 mM HEPES, 143 mM NaCl, 6 mM KCl, 1 mM MgSO4, 1 mM CaCl2, 0.125 mM sulfapyrazone and 0.1% glucose.
After 10 s of basal fluorescence recording, various concentrations of the compounds of the invention were added to the cells. Changes in fluorescence levels were first monitored for 180 s in order to detect any agonist activity of the compounds. Then the cells were stimulated by an EC25 glutamate concentration for an additional 110 s in order to measure enhancing activities of the compounds of the invention. EC25 glutamate concentration is the concentration giving 25% of the maximal glutamate response.
The concentration-response curves of representative compounds of the present invention were generated using the Prism GraphPad software (Graph Pad Inc, San Diego, USA). The curves were fitted to a four-parameter logistic equation: (Y=Bottom+(Top−Bottom)/(1+10^((LogEC50−X)*Hill Slope) allowing the determination of EC50 values.
The Table 3 below represents the mean EC50 obtained from at least three independent experiments of selected molecules performed in duplicate.

T1 sequence (Q14833 33-912): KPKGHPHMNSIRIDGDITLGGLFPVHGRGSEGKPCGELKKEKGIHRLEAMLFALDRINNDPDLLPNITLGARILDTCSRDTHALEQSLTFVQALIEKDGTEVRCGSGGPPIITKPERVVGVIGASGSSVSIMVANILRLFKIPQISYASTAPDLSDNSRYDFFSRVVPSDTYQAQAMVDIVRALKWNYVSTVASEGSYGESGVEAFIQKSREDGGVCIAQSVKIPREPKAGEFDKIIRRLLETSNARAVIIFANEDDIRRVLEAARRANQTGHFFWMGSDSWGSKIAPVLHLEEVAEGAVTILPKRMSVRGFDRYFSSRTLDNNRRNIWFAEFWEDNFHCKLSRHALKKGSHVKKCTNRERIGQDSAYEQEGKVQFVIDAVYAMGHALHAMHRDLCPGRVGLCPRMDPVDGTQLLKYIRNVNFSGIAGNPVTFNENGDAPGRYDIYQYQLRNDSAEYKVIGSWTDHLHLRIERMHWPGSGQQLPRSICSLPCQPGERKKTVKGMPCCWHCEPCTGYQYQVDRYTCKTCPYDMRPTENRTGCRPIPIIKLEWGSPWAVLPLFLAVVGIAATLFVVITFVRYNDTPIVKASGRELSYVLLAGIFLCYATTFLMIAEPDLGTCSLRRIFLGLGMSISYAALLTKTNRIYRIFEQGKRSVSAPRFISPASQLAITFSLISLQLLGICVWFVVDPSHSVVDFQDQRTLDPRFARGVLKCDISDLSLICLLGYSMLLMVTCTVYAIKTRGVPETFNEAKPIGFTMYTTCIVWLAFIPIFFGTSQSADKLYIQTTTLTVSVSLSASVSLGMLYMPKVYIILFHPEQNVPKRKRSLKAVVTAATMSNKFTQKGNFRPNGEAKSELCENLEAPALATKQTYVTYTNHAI

## Fc1cccc(Nc2nc3c(s2)CCCc2[nH]ncc2-3)n1
other
  melting point: 314 °C (dec.)

## c1ccc(Nc2nc3c(s2)CCc2[nH]ncc2-3)nc1 [Compound 1-1, N-(Pyridin-2-yl)-5,6-dihydro-4H-thiazolo[4,5-e]indazol-2-amine]
other
  melting point: 297 to 299 °C
[1]
  EC50: < 100 nM

## CC(C)C(=O)n1ncc2c1CCc1sc(Nc3ccccn3)nc1-2 [Compound 1-2, 2-Methyl-1-(2-(pyridin-2-ylamino)-4H-thiazolo[4,5-e]indazol-6(5H)-yl)propan-1-one]
other
  melting point: 167 to 168 °C

## Cc1cccc(Nc2nc3c(s2)CCc2[nH]ncc2-3)n1 [Compound 1-3, N-(6-Methylpyridin-2-yl)-5,6-dihydro-4H-thiazolo[4,5-e]indazol-2-amine]
other
  melting point: 280 °C
[1]
  EC50: 100 to 1000 nM

## Clc1cccc(Nc2nc3c(s2)CCc2[nH]ncc2-3)n1 [Compound 1-4, N-(6-Chloropyridin-2-yl)-5,6-dihydro-4H-thiazolo[4,5-e]indazol-2-amine]
other
  melting point: > 300 °C

## Fc1ccc(F)c(Nc2nc3c(s2)CCc2[nH]ncc2-3)c1 [Compound 1-5, N-(2,5-Difluorophenyl)-5,6-dihydro-4H-thiazolo[4,5-e]indazol-2-amine]
other
  melting point: 270 °C (dec.)
[1]
  EC50: 100 to 1000 nM

## Fc1cccc(Nc2nc3c(s2)CCc2[nH]ncc2-3)n1 [Compound 1-6, N-(6-Fluoropyridin-2-yl)-5,6-dihydro-4H-thiazolo[4,5-e]indazol-2-amine]
other
  melting point: > 300 °C
[1]
  EC50: 100 to 1000 nM

## c1ccc(Nc2nc3c(s2)CCCc2[nH]ncc2-3)nc1 [Compound 1-8, Pyridin-2-yl-(4,5,6,7-tetrahydro-3-thia-1,7,8-triaza-cyclopenta[e]azulen-2-yl)-amine]
[1]
  EC50: < 100 nM

## CCC1Cc2[nH]ncc2-c2nc(Nc3ccccn3)sc21 (centres unmarked) [Compound 1-9, 4-Ethyl-N-(pyridin-2-yl)-5,6-dihydro-4H-thiazolo[4,5-e]indazol-2-amine]
other
  melting point: 317 to 319 °C

## Fc1cccnc1Nc1nc2c(s1)CCc1[nH]ncc1-2 [Compound 1-10, N-(3-Fluoropyridin-2-yl)-5,6-dihydro-4H-thiazolo[4,5-e]indazol-2-amine]
other
  melting point: 300 °C (dec.)

## Cc1cccc(Nc2nc3c(s2)CCCc2[nH]ncc2-3)n1 [Compound 1-11, (6-Methyl-pyridin-2-yl)-(4,5,6,7-tetrahydro-3-thia-1,7,8-triaza-cyclopenta[e]azulen-2-yl)-amine]
other
  melting point: 312 °C (dec.)

## Fc1ccc(Nc2nc3c(s2)CCCc2[nH]ncc2-3)nc1 [Compound 1-12, (5-Fluoro-pyridin-2-yl)-(4,5,6,7-tetrahydro-3-thia-1,7,8-triaza-cyclopenta[e]azulen-2-yl)-amine]
other
  melting point: 314 °C (dec.)

## Fc1cccnc1Nc1nc2c(s1)CCCc1[nH]ncc1-2 [Compound 1-13, (3-Fluoro-pyridin-2-yl)-(4,5,6,7-tetrahydro-3-thia-1,7,8-triaza-cyclopenta[e]azulen-2-yl)-amine]
other
  melting point: 300 °C (dec.)
[1]
  EC50: < 100 nM

## COc1cccc(Nc2nc3c(s2)CCCc2[nH]ncc2-3)n1 [Compound 1-14, (6-Methoxy-pyridin-2-yl)-(4,5,6,7-tetrahydro-3-thia-1,7,8-triaza-cyclopenta[e]azulen-2-yl)-amine]
other
  melting point: 300 °C (dec.)
[1]
  EC50: 1000 to 10000 nM

## Fc1ccc(Nc2nc3c(s2)CCc2[nH]ncc2-3)nc1 [Compound 1-15, N-(5-Fluoropyridin-2-yl)-5,6-dihydro-4H-thiazolo[4,5-e]indazol-2-amine]
other
  melting point: 315 °C (dec.)

## Clc1cccc(Nc2nc3c(s2)CCCc2[nH]ncc2-3)n1 [Compound 1-16, (6-Chloro-pyridin-2-yl)-(4,5,6,7-tetrahydro-3-thia-1,7,8-triaza-cyclopenta[e]azulen-2-yl)-amine]
other
  melting point: 314 °C (dec.)

## c1cnc(Nc2nc3c(s2)CCc2[nH]ncc2-3)cn1 [Compound 1-17, N-(Pyrazin-2-yl)-5,6-dihydro-4H-thiazolo[4,5-e]indazol-2-amine]
other
  melting point: > 330 °C

## c1n[nH]c2c1-c1nc(NC3CCCC3)sc1CC2 [Compound 1-18, N-Cyclopentyl-5,6-dihydro-4H-thiazolo[4,5-e]indazol-2-amine]
other
  melting point: 166 to 168 °C

## c1n[nH]c2c1-c1nc(NC3CCC3)sc1CC2 [Compound 1-20, N-Cyclobutyl-5,6-dihydro-4H-thiazolo[4,5-e]indazol-2-amine]
other
  melting point: 144 to 146 °C

## c1n[nH]c2c1-c1nc(NC3CC3)sc1CCC2 [Compound 1-22, Cyclopropyl-(4,5,6,7-tetrahydro-3-thia-1,7,8-triaza-cyclopenta[e]azulen-2-yl)-amine]
other
  melting point: 178 to 182 °C

## c1n[nH]c2c1-c1nc(NC3CCC3)sc1CCC2 [Compound 1-23, Cyclobutyl-(4,5,6,7-tetrahydro-3-thia-1,7,8-triaza-cyclopenta[e]azulen-2-yl)-amine]
other
  melting point: 198 to 221 °C

## c1n[nH]c2c1-c1nc(NC3CCCC3)sc1CCC2 [Compound 1-24, Cyclopentyl-(4,5,6,7-tetrahydro-3-thia-1,7,8-triaza-cyclopenta[e]azulen-2-yl)-amine]
other
  melting point: 248 °C (dec.)

## c1cnc(Nc2nc3c(s2)CCCc2[nH]ncc2-3)nc1 [Compound 1-25, Pyrimidin-2-yl-(4,5,6,7-tetrahydro-3-thia-1,7,8-triaza-cyclopenta[e]azulen-2-yl)-amine]
other
  melting point: 310 °C (dec.)

## c1cnc(Nc2nc3c(s2)CCc2[nH]ncc2-3)nc1 [Compound 1-26, N-(Pyrimidin-2-yl)-5,6-dihydro-4H-thiazolo[4,5-e]indazol-2-amine]
other
  melting point: 281 to 282 °C

## Cn1ccc(Nc2nc3c(s2)CCCc2[nH]ncc2-3)n1 [Compound 1-27, (1-Methyl-1H-pyrazol-3-yl)-(4,5,6,7-tetrahydro-3-thia-1,7,8-triaza-cyclopenta[e]azulen-2-yl)-amine]
other
  melting point: 288 to 293 °C

## Cc1ccnc(Nc2nc3c(s2)CCc2[nH]ncc2-3)n1 [Compound 1-29, N-(4-Methylpyrimidin-2-yl)-5,6-dihydro-4H-thiazolo[4,5-e]indazol-2-amine]
other
  melting point: 283 °C (dec.)

## Cc1ccnc(Nc2nc3c(s2)CCCc2[nH]ncc2-3)n1 [Compound 1-30, (4-Methyl-pyrimidin-2-yl)-(4,5,6,7-tetrahydro-3-thia-1,7,8-triaza-cyclopenta[e]azulen-2-yl)-amine]
other
  melting point: 297 °C (dec.)

## CC1(C)Cc2[nH]ncc2-c2nc(Nc3ncccn3)sc21 [Compound 1-32, 4,4-Dimethyl-N-(pyrimidin-2-yl)-5,6-dihydro-4H-thiazolo[4,5-e]indazol-2-amine]
other
  melting point: 298 to 306 °C

## CC1Cc2[nH]ncc2-c2nc(Nc3ncccn3)sc21 (centres unmarked) [Compound 1-33, 4-Methyl-N-(pyrimidin-2-yl)-5,6-dihydro-4H-thiazolo[4,5-e]indazol-2-amine]
other
  melting point: > 373 °C
